Values quoted from earlier work, collected in US20210154122A1, “TOPICAL COMPOSITION” (OTSUKA PHARMACEUTICAL CO., LTD., priority 2017, published 2021).

Test system: keratocytes
Settings: keratocytes treated with uridine; disclosed in Patent Document 5 (JP 2009-517380 A)

## O=c1ccn([C@@H]2O[C@H](CO)[C@@H](O)[C@H]2O)c(=O)[nH]1 [uridine]
  hyaluronic acid production: promoted
